Measured values: patent US8859535B2, “Hydroxy substituted isoquinolinone derivatives” (Novartis AG, priority 2011, dated 2014)

Columns and labels:
Format in all cases: binding
[1] = target: T1, human MDM2 protein (amino acids 2-188) (Homo sapiens, UniProt Q00987); experiment: p53-MDM2 TR-FRET assay (p53-MDM2 Assay 1); conditions: 1.25 nM MDM2-biotinylated, 10 nM Cy5-p53 peptide; read-out: IC50 (μM) of p53-Hdm2 inhibition (TR-FRET) Assay 1
T1 construct: human MDM2 protein (amino acids 2-188); made in house
In short: (§1)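 Peptide displacement read as 665/620 nm TR-FRET ratio (excitation 340 nm) after 15 min room temperature with 10 nM Cy5-p53 aa18-26, following 15 min preincubation of Eu-streptavidin (0.625 nM) with biotinylated MDM4 aa 2-185 (2.5 nM) or MDM2 aa 2-188 (1.25 nM); IC50 curve-fitted. MDM2 Assay 2: MDM2 and Eu-streptavidin each 0.1 nM.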

[2] = target: T1, human MDM2 protein (amino acids 2-188); experiment: p53-MDM2 TR-FRET assay, modified (p53-MDM2 Assay 2); conditions: 0.1 nM MDM2, 0.1 nM Europium labeled streptavidin; read-out: IC50 (nM) of p53-Hdm2 inhibition (TR-FRET) Assay 2
Method: Time Resolved Fluorescence Energy Transfer (TR-FRET) Assay
The inhibition of p53-MDM2 and p53-MDM4 interactions is measured by time resolved fluorescence energy transfer (TR-FRET). Fluorescence energy transfer (or Foerster resonance energy transfer) describes an energy transfer between donor and acceptor fluorescent molecules. For this assay, human MDM2 protein (amino acids 2-188) and human MDM4 protein (amino acids 2-185), tagged with a C-terminal biotin moiety, are used in combination with a Europium labeled streptavidin (Perkin Elmer, Inc., Waltham, Mass., USA) serving as the donor fluorophore. The p53 derived, Cy5 labeled peptide Cy5-TFSDLWKLL (p53 aa18-26) is the energy acceptor. Upon excitation of the donor molecule at 340 nm, binding interaction between MDM2 or MDM4 and the p53 peptide induces energy transfer and enhanced response at the acceptor emission wavelength at 665 nm. Disruption of the formation of the p53-MDM2 or p53-MDM4 complex due to an inhibitor molecule binding to the p53 binding site of MDM2 or MDM4 results in increased donor emission at 620 nm. The ratiometric FRET assay readout is calculated from the raw data of the two distinct fluorescence signals measured in time resolved mode (fluorescence 665 nm/fluorescence 620 nm×1000).
After addition of 1.25 nM MDM2-biotinylated or 2.5 nM MDM4-biotinylated (internal preparations), and 0.625 nM Europium labeled streptavidin (Perkin Elmer), the solution is pre-incubated for 15 minutes at room temperature, then 10 nM Cy5-p53 peptide (internal preparation) is added before an incubation at room temperature for 15 minutes prior to reading the plate. For measurement of samples, a Victor II microplate reader (Perkin Elmer) is used with the following settings: Excitation 340 nm, Emission Donor 620 nm and Emission Acceptor 665 nm. IC50 values are calculated by curve fitting using XLfit. If not specified, reagents are purchased from Sigma-Aldrich Chemie GmBH, Buchs, Switzerland.
This assay was used to evaluate compounds displaying inhibition of p53-MDM2 interaction and p53-MDM4 interaction at IC50s of 0.005 to 50 μM (p53-MDM2 Assay 1 and p53-MDM4 Assay 1, respectively). For selected compounds displaying IC50s between […] on MDM2, a slightly modified assay is used with the following adaptations: 0.1 nM MDM2, 0.1 nM Europium labeled streptavidin and Tecan genios Pro is used as a microplate reader for the fluorescence measurements (p53-MDM2 Assay 2).

[3] = target: T2, human MDM4 protein (amino acids 2-185) (Homo sapiens, UniProt O15151); experiment: p53-MDM4 TR-FRET assay (p53-MDM4 Assay 1); conditions: 2.5 nM MDM4-biotinylated, 10 nM Cy5-p53 peptide; read-out: IC50 (μM) of p53-Hdm4 inhibition (TR-FRET) Assay 1
T2 construct: human MDM4 protein (amino acids 2-185); made in house
T2 sequence (O15151 2-185): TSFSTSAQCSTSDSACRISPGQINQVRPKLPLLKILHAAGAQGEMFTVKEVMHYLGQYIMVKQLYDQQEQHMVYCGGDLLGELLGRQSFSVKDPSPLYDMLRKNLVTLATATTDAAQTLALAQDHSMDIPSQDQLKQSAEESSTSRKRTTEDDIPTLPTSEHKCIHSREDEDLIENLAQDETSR
In short: as §1

T1 sequence (Q00987 2-188): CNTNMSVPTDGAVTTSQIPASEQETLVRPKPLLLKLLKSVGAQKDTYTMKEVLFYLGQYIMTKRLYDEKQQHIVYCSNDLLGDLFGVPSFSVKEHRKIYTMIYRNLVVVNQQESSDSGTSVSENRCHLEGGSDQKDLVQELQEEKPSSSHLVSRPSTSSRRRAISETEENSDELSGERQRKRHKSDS

IC50 [1]	IC50 [2]	IC50 [3]	SMILES
0.0026 µM	1.38 nM	2.31 µM	COc1cc2c(cc1OC(C)C)[C@H](c1ccc(Cl)cc1)N(c1ccc(C(C)(O)C3CCN(C(=O)F)CC3)cc1)C(=O)C2 (mixture of isomers) [Example 90, 4-(1-{4-[(S)-1-(4-Chloro-phenyl)-7-isopropoxy-6-methoxy-3-oxo-3,4-dihydro-1H-isoquinolin-2-yl]-phenyl}-1-hydroxy-ethyl)-piperidine-1-carbonyl fluoride]
0.0023 µM	1.85 nM	2.16 µM	COc1cc2c(cc1OC(C)C)[C@H](c1ccc(Cl)cc1)N(c1ccc(C(C)(O)C3CCN(C(=O)COC(C)=O)CC3)cc1)C(=O)C2 (mixture of isomers) [Example 91, Acetic acid 2-[4-(1-{4-[(S)-1-(4-chloro-phenyl)-7-isopropoxy-6-methoxy-3-oxo-3,4-dihydro-1H-isoquinolin-2-yl]-phenyl}-1-hydroxy-ethyl)-piperidin-1-yl]-2-oxo-ethyl ester]
0.0036 µM	1.84 nM	2.71 µM	COc1cc2c(cc1OC(C)C)[C@H](c1ccc(Cl)cc1)N(c1ccc(C(C)(O)C3CCN(C(=O)CO)CC3)cc1)C(=O)C2 (mixture of isomers) [Example 92, (S)-1-(4-Chloro-phenyl)-2-(4-{1-hydroxy-1-[1-(2-hydroxy-acetyl)-piperidin-4-yl]-ethyl}-phenyl)-7-isopropoxy-6-methoxy-1,4-dihydro-2H-isoquinolin-3-one]
0.0028 µM	1.2 nM	2.84 µM	COc1cc2c(cc1OC(C)C)[C@H](c1ccc(Cl)cc1)N(c1ccc(C(C)(O)C3CC4CCC(C3)O4)cc1)C(=O)C2 (mixture of isomers) [Example 158, (S)-1-(4-Chloro-phenyl)-2-{4-[1-hydroxy-1-(8-oxabicyclo[3.2.1]oct-3-yl)-ethyl]-phenyl}-7-isopropoxy-6-methoxy-1,4-dihydro-2H-isoquinolin-3-one]
0.0028 µM	1.92 nM	3.58 µM	COc1cc2c(cc1OC(C)C)[C@H](c1ccc(Cl)cc1)N(c1ccc(C(C)(O)C3CC4CCCC(C3)S4(=O)=O)cc1)C(=O)C2 (mixture of isomers) [Example 175, (S)-1-(4-Chloro-phenyl)-2-{4-[1-(9,9-dioxo-9-thia-bicyclo[3.3.1]non-3-yl)-1-hydroxy-ethyl]-phenyl}-7-isopropoxy-6-methoxy-1,4-dihydro-2H-isoquinolin-3-one]
0.0016 µM	1.06 nM	1.75 µM	COc1cc2c(cc1OC(C)C)[C@H](c1ccc(Cl)cc1)N(c1ccc([C@@](C)(O)C3CCN(C)CC3)cc1)C(=O)C2 (single isomer, unassigned) [Example 94]
–	12.6 nM	–	COc1cc2c(cc1OC(C)C)[C@H](c1ccc(Cl)cc1)N(c1ccc(C(C)(O)C3C4CNCC3COC4)cc1)C(=O)C2 (stereo partly drawn) [Example 156, (S)-1-(4-Chloro-phenyl)-2-{4-[1-hydroxy-1-(3-oxa-7-aza-bicyclo[3.3.1]non-9-yl)-ethyl]-phenyl}-7-isopropoxy-6-methoxy-1,4-dihydro-2H-isoquinolin-3-one]
–	4.89 nM	–	COc1cc2c(cc1OC(C)C)[C@H](c1ccc(Cl)cc1)N(c1ccc(C(C)(O)C3C4COCC3CN(C=O)C4)cc1)C(=O)C2 (stereo partly drawn) [Example 157, 9-(1-{4-[(S)-1-(4-Chloro-phenyl)-7-isopropoxy-6-methoxy-3-oxo-3,4-dihydro-1H-isoquinolin-2-yl]-phenyl}-1-hydroxy-ethyl)-3-oxa-7-aza-bicyclo[3.3.1]nonane-7-carbaldehyde]
–	12 nM	–	CC(C)Oc1cc2c(cc1OC(F)F)CC(=O)N(c1ccc(C(C)(O)C3CCOCC3)cc1)C2c1ccc(Cl)cc1 (centres unmarked) [Example 165, 1-(4-Chloro-phenyl)-6-difluoromethoxy-2-{4-[1-hydroxy-1-(tetrahydro-pyran-4-yl)-ethyl]-phenyl}-7-isopropoxy-1,4-dihydro-2H-isoquinolin-3-one]
–	98 nM	–	COc1cc2c(cc1OC(C)C)[C@H](c1ccc(Cl)cc1)N(c1ccc([C@](C)(O)C3CC4CCCC(C3)S4(=O)=O)cc1)C(=O)C2 (stereo partly drawn) [Example 176, (S)-1-(4-Chloro-phenyl)-2-{4-[(R)-1-(9,9-dioxo-9-thia-bicyclo[3.3.1]non-3-yl)-1-hydroxy-ethyl]-phenyl}-7-isopropoxy-6-methoxy-1,4-dihydro-2H-isoquinolin-3-one]
–	1.15 nM	–	COc1cc2c(cc1OC(C)C)[C@H](c1ccc(Cl)cc1)N(c1ccc([C@@](C)(O)C3CC4CCCC(C3)S4(=O)=O)cc1)C(=O)C2 (stereo partly drawn) [Example 177, (S)-1-(4-Chloro-phenyl)-2-{4-[(S)-1-(9,9-dioxo-9-thia-bicyclo[3.3.1]non-3-yl)-1-hydroxy-ethyl]-phenyl}-7-isopropoxy-6-methoxy-1,4-dihydro-2H-isoquinolin-3-one]
–	1.59 nM	–	COc1cc2c(cc1OC(C)C)[C@H](c1ccc(Cl)cc1)N(c1ccc(C(C)(O)C34CCC(CC3)OC4)cc1)C(=O)C2 (stereo partly drawn) [Example 178, (S)-1-(4-Chloro-phenyl)-2-{4-[1-hydroxy-1-(2-oxa-bicyclo[2.2.2]oct-4-yl)-ethyl]-phenyl}-7-isopropoxy-6-methoxy-1,4-dihydro-2H-isoquinolin-3-one]
–	1.28 nM	–	COc1cc2c(cc1OC(C)C)[C@H](c1ccc(Cl)cc1)N(c1ccc(C(C)(O)[C@H]3CCCN(C(=O)OC(C)(C)C)C3)cc1)C(=O)C2 (stereo partly drawn) [Example 179, (S)-3-(1-{4-[(S)-1-(4-Chloro-phenyl)-7-isopropoxy-6-methoxy-3-oxo-3,4-dihydro-1H-isoquinolin-2-yl]-phenyl}-1-hydroxy-ethyl)-piperidine-1-carboxylic acid tert-butyl ester]
–	2.25 nM	–	COc1cc2c(cc1OC(C)C)[C@H](c1ccc(Cl)cc1)N(c1ccc(C(C)(O)[C@H]3CCCNC3)cc1)C(=O)C2 (stereo partly drawn) [Example 180, (S)-1-(4-Chloro-phenyl)-2-[4-((S)-1-hydroxy-1-piperidin-3-yl-ethyl)-phenyl]-7-isopropoxy-6-methoxy-1,4-dihydro-2H-isoquinolin-3-one]
–	5.13 nM	–	COc1cc2c(cc1OC(C)C)[C@H](c1ccc(Cl)cc1)N(c1ccc(C(C)(O)[C@H]3CCCN(C)C3)cc1)C(=O)C2 (stereo partly drawn) [Example 181, (S)-1-(4-Chloro-phenyl)-2-{4-[1-hydroxy-1-((S)-1-methyl-piperidin-3-yl)-ethyl]-phenyl}-7-isopropoxy-6-methoxy-1,4-dihydro-2H-isoquinolin-3-one]
–	0.329 nM	–	COc1cc2c(cc1OC(C)C)[C@H](c1ccc(Cl)cc1)N(c1ccc(C(C)(O)[C@H]3CCCN(C=O)C3)cc1)C(=O)C2 (stereo partly drawn) [Example 182, (S)-3-(1-{4-[(S)-1-(4-Chloro-phenyl)-7-isopropoxy-6-methoxy-3-oxo-3,4-dihydro-1H-isoquinolin-2-yl]-phenyl}-1-hydroxy-ethyl)-piperidine-1-carbaldehyde]
–	8.78 nM	–	COc1cc2c(cc1OC(C)C)[C@H](c1ccc(Cl)cc1)N(c1ccc(C(C)(O)[C@H]3CCCN(C4COC4)C3)cc1)C(=O)C2 (stereo partly drawn) [Example 183, (S)-1-(4-Chloro-phenyl)-2-{4-[1-hydroxy-1-((S)-1-oxetan-3-yl-piperidin-3-yl)-ethyl]-phenyl}-7-isopropoxy-6-methoxy-1,4-dihydro-2H-isoquinolin-3-one]
